The subject of data set [1] is HT29: human colon cancer cell line. As to the kind of experiment: Proliferation IC50 assay, oxic/hypoxic, HT29. The format is cell-based. The settings on record: for IC50 / HCR (hypoxic cytotoxicity ratio) HT29: Table 3; for IC50: 4 h exposure under aerobic conditions; for HCR (hypoxic cytotoxicity ratio) HT29: IC50(aerobic)/IC10(hypoxic).
In data set [2] the test system is SKOV3: human ovarian carcinoma cell line. As to the kind of experiment: Proliferation IC50 assay, oxic/hypoxic, SKOV3. The conditions noted are these: Table 3; for IC50: 4 h exposure under aerobic conditions; for HCR (hypoxic cytotoxicity ratio) SKOV3: IC50(aerobic)/IC10(hypoxic). The format is cell-based.
Data set [3] can be described thus: One-electron reduction potential E(1) by pulse radiolysis. The conditions noted are these: determined by pulse radiolysis. The format is physicochemical.
Data set [4] has as its system HT29 clonogens. As to the kind of experiment: Clonogenic assay (C10), oxic/hypoxic, HT29. The settings on record: for Clonogenic HCR HT29: C10(aerobic)/C10(hypoxic); for Clonogenic C10 HT29 Oxic: concentration to reduce HT29 clonogens to 10% of controls, 4 hr exposure under aerobic conditions. The format is cell-based, human.
A short description of data set [5]: Hypoxic metabolism with HT29 tumour S9 (HPLC). The settings on record: for k: rate of formation of compound of Formula II: 10 μM with tumour S9 (12 mg/mL protein), 37° C., pH 7.4, NADPH 1 mM, 2 h, products R3, 56, 55, 60. An excerpt:
Metabolism of compounds of Formula I was investigated using S9 preparations from HT29 tumours grown as xenografts in CD-1 mice.

For the compound `CN(C)CCOc1ccc2[nH]c(C(=O)N3CC(CCl)c4c3cc([N+](=O)[O-])c3c(C#N)cccc43)cc2c1` (stereo not shown) [Compound 6, 1-(Chloromethyl)-3-{5-[2-(dimethylamino)ethoxy]indol-2-carbonyl}-5-nitro-1,2-dihydro-3H-benzo[e]indole-6-carbonitrile], the melting point is more than 300 °C. Besides, the 50% inhibitory concentration (IC50) in data set [1] (Homo sapiens, HT-29) was 0.12 µM. Also, in data set [1], the “HCR (hypoxic cytotoxicity ratio) HT29” value came to 1.1. Further, the half-inhibitory concentration (IC50) in data set [2] (Homo sapiens, SK-OV-3) was 0.17 µM. Also, in data set [2], the “HCR (hypoxic cytotoxicity ratio) SKOV3” value is reported as 1.7. Besides, the “E(1): one-electron reduction potential” value in data set [3] was −491 ± 8 mV.

Regarding `CN(C)CCOc1ccc2[nH]c(C(=O)N3CC(CCl)c4c3cc([N+](=O)[O-])c3ccc(C(N)=O)cc43)cc2c1` (stereo not shown) [Compound 43, 1-(Chloromethyl)-3-{5-[2-(dimethylamino)ethoxy]indol-2-carbonyl}-5-nitro-1,2-dihydro-3H-benzo[e]indole-8-carboxamide], the 50% inhibitory concentration (IC50) in data set [1] (Homo sapiens, HT-29) came to 2.8 µM. Also, the “HCR (hypoxic cytotoxicity ratio) HT29” value in data set [1] is 22. Moreover, in data set [2] (Homo sapiens, SK-OV-3), the IC50 amounted to 3.4 µM. In addition, the “HCR (hypoxic cytotoxicity ratio) SKOV3” value in data set [2] amounted to 34. In data set [4], the “Clonogenic HCR HT29” value is recorded as 21.2 and the “Clonogenic C10 HT29 Oxic” value came out at 33 µM. Also, the “E(1): one-electron reduction potential” value in data set [3] is −447 ± 9 mV.

On to `CN(C)CCOc1ccc2[nH]c(C(=O)N3CC(CCl)c4c3cc([N+](=O)[O-])c3ccc(S(N)(=O)=O)cc43)cc2c1` (stereo not shown) [Compound 49, 1-(Chloromethyl)-3-{5-[2-(dimethylamino)ethoxy]indol-2-carbonyl}-5-nitro-1,2-dihydro-3H-benzo[e]indole-8-sulfonamide], for which the melting point is 260 to 265 °C (dec.). In data set [1] (Homo sapiens, HT-29), this compound came in with a concentration for half-maximal inhibition (IC50) of 9 µM. Besides, in data set [1], the “HCR (hypoxic cytotoxicity ratio) HT29” value is given as 26. In addition, in data set [2] (Homo sapiens, SK-OV-3), the 50% inhibitory concentration (IC50) is 4.9 µM. Also, the “HCR (hypoxic cytotoxicity ratio) SKOV3” value in data set [2] came out at 21. In data set [3], the “E(1): one-electron reduction potential” value is listed as −456 ± 8 mV.

Turning to `CN(C)CCOc1ccc2[nH]c(C(=O)N3CC(CCl)c4c3cc([N+](=O)[O-])c3cc(S(N)(=O)=O)ccc43)cc2c1` (stereo not shown) [Compound 26, 1-(Chloromethyl)-3-{5-[2-(dimethylamino)ethoxy]indol-2-carbonyl}-5-nitro-1,2-dihydro-3H-benzo[e]indole-7-sulfonamide], the IC50 in data set [1] (Homo sapiens, HT-29) turned out to be 4.6 µM; in data set [2] (Homo sapiens, SK-OV-3), 6.9 µM. Moreover, the “HCR (hypoxic cytotoxicity ratio) HT29” value in data set [1] was found to be 330. Besides, the “HCR: Hypoxic cytotoxicity ratio for HT29 cell line” value in data set [1] (Table 5, as defined in Table 3) was determined as 330. The “formation of 60 under hypoxic conditions” value in data set [5] (26 at 10 μM with S9, 2 h, hypoxic, HPLC) was “major product of hypoxic metabolism”. For the same compound, the “formation of 60 under oxic conditions” value in data set [5] (26 at 10 μM with S9, 2 h, oxic, HPLC) is “not detected”. Moreover, the “HCR (hypoxic cytotoxicity ratio) SKOV3” value in data set [2] is recorded as 280. Also, the “Clonogenic HCR HT29” value in data set [4] was more than 30.9. In addition, the “Clonogenic C10 HT29 Oxic” value in data set [4] was more than 42 µM. Also, the “E(1): one-electron reduction potential” value in data set [3] was −390 ± 9 mV.

For the compound `CN(C)CCNS(=O)(=O)c1ccc2c3c(cc([N+](=O)[O-])c2c1)N(C(=O)c1cc2cc(OCCN(C)C)ccc2[nH]1)CC3CCl` (stereo not shown) [Compound 39, 1-(Chloromethyl)-3-{5-[2-(dimethylamino)ethoxy]indol-2-carbonyl}-N-[2-(dimethylamino)ethyl]-5-nitro-1,2-dihydro-3H-benzo[e]indole-7-sulfonamide], the IC50 in data set [1] (Homo sapiens, HT-29) amounted to 0.73 µM. The “HCR (hypoxic cytotoxicity ratio) HT29” value in data set [1] was 110. This compound showed an IC50 in data set [2] (Homo sapiens, SK-OV-3) of 0.83 µM. In addition, in data set [2], the “HCR (hypoxic cytotoxicity ratio) SKOV3” value is listed as 130. Further, in data set [4], the “Clonogenic HCR HT29” value was determined as 55 and the “Clonogenic C10 HT29 Oxic” value turned out to be 6.2 µM. In addition, the “E(1): one-electron reduction potential” value in data set [3] is listed as −357 ± 8 mV.

On to `CN(C)CCOc1ccc2[nH]c(C(=O)N3CC(CCl)c4c3cc([N+](=O)[O-])c3ccccc43)cc2c1` (stereo not shown) [Compound R2, reference compound], for which the IC50 in data set [1] (Homo sapiens, HT-29) was 0.47 µM. Besides, the “k: rate of formation of compound of Formula II” value (“k: rate” below) in data set [5] (hypoxic) is 0.49 µM/h. Half-maximal inhibition in data set [2] (Homo sapiens, SK-OV-3) (IC50) was put at 1.4 µM. In addition, in data set [4], the “Clonogenic HCR HT29” value is reported as 2 and the “Clonogenic C10 HT29 Oxic” value was 4.8 µM. Also, in data set [3], the “E(1): one-electron reduction potential” value is −512 ± 8 mV.

With `CN(C)CCOc1ccc2[nH]c(C(=O)N3CC(CCl)c4c3cc([N+](=O)[O-])c3cc(C(N)=O)ccc43)cc2c1` (stereo not shown) [Compound 16, 1-(Chloromethyl)-3-{5-[2-(dimethylamino)ethoxy]indol-2-carbonyl}-5-nitro-1,2-dihydro-3H-benzo[e]indole-7-carboxamide], the IC50 in data set [1] (Homo sapiens, HT-29) came out at 4.1 µM; in data set [2] (Homo sapiens, SK-OV-3) it was 3.9 µM. In addition, the “k: rate” value in data set [5] (hypoxic) worked out at 1.48 µM/h. For the same compound, the “Clonogenic HCR HT29” value in data set [4] is given as more than 14. In data set [4], the “Clonogenic C10 HT29 Oxic” value was more than 25 µM. Besides, the “E(1): one-electron reduction potential” value in data set [3] was −422 ± 10 mV.

For `COc1cc2cc(C(=O)N3CC(CCl)c4c3cc([N+](=O)[O-])c3cc(C(C)=O)ccc43)[nH]c2c(OC)c1OC` (stereo not shown) [Compound 11, 7-Acetyl-1-(chloromethyl)-5-nitro-3-(5,6,7-trimethoxyindol-2-carbonyl)-1,2-dihydro-3H-benzo[e]indole], the melting point is 257 to 260 °C. This compound also returned an IC50 in data set [1] (Homo sapiens, HT-29) of 4.1 µM. The “HCR (hypoxic cytotoxicity ratio) HT29” value in data set [1] is 5.2. In data set [2] (Homo sapiens, SK-OV-3), this compound yielded a concentration for half-maximal inhibition (IC50) of 5.1 µM. The “HCR (hypoxic cytotoxicity ratio) SKOV3” value in data set [2] came out at 19. Also, in data set [4], the “Clonogenic HCR HT29” value is reported as more than 13.5 and the “Clonogenic C10 HT29 Oxic” value was more than 25 µM.

On to `COc1cc2cc(C(=O)N3CC(CCl)c4c3cc([N+](=O)[O-])c3cc([N+](=O)[O-])ccc43)[nH]c2c(OC)c1OC` (stereo not shown) [Compound 8], for which, in data set [1], the midpoint of inhibition, the IC50, lay at 14 µM and the “HCR (hypoxic cytotoxicity ratio) HT29” value worked out at 12. In data set [2], half-maximal inhibition (IC50) required 16 µM and the “HCR (hypoxic cytotoxicity ratio) SKOV3” value worked out at 78. Moreover, in data set [4], the “Clonogenic HCR HT29” value is more than 16.2 and the “Clonogenic C10 HT29 Oxic” value is more than 25 µM.

Turning to `CN(C)CCOc1ccc2[nH]c(C(=O)N3CCc4c3cc([N+](=O)[O-])c3c(S(N)(=O)=O)c(CCl)ccc43)cc2c1` [Compound 7, 7-(Chloromethyl)-3-{5-[2-(dimethylamino)ethoxy]indol-2-carbonyl}-5-nitro-1,2-dihydro-3H-benzo[e]indole-6-sulfonamide], the melting point is more than 320 °C. Also, the midpoint of inhibition in data set [1] (Homo sapiens, HT-29), the IC50, lay at 2.7 µM. For the same compound, the “HCR (hypoxic cytotoxicity ratio) HT29” value in data set [1] is reported as 2.3. In data set [2] (Homo sapiens, SK-OV-3), this compound had an IC50 of 3.7 µM. For the same compound, in data set [2], the “HCR (hypoxic cytotoxicity ratio) SKOV3” value turned out to be 4.6. In addition, the “E(1): one-electron reduction potential” value in data set [3] is on record as −497 ± 8 mV.

As for `CN(C)CCOc1ccc2[nH]c(C(=O)N3CC(CCl)c4c3cc([N+](=O)[O-])c3c(C(N)=O)cccc43)cc2c1` (stereo not shown) [Compound 5, 1-(Chloromethyl)-3-{5-[2-(dimethylamino)ethoxy]indol-2-carbonyl}-5-nitro-1,2-dihydro-3H-benzo[e]indole-6-carboxamide], the melting point is more than 350 °C. The half-maximal inhibitory concentration (IC50) in data set [1] (Homo sapiens, HT-29) came out at 23 µM. Further, in data set [1], the “HCR (hypoxic cytotoxicity ratio) HT29” value turned out to be 43. This compound also came in with a 50% inhibitory concentration (IC50) in data set [2] (Homo sapiens, SK-OV-3) of 50 µM. Further, in data set [2], the “HCR (hypoxic cytotoxicity ratio) SKOV3” value is reported as 18. For the same compound, the “E(1): one-electron reduction potential” value in data set [3] is −481 ± 8 mV.

Take `CN(C)CCOc1ccc2[nH]c(C(=O)N3CC(CCl)c4c3cc([N+](=O)[O-])c3cc(S(C)(=O)=O)ccc43)cc2c1` (stereo not shown) [Compound 24, 1-(Chloromethyl)-3-{5-[2-(dimethylamino)ethoxy]indol-2-carbonyl}-7-(methylsulfonyl)-5-nitro-1,2-dihydro-3H-benzo[e]indole]: the IC50 in data set [1] (Homo sapiens, HT-29) was 0.97 µM; in data set [2] (Homo sapiens, SK-OV-3) it was 1.3 µM. The “HCR (hypoxic cytotoxicity ratio) HT29” value in data set [1] is recorded as 4.0. In data set [2], the “HCR (hypoxic cytotoxicity ratio) SKOV3” value is 11. For the same compound, in data set [3], the “E(1): one-electron reduction potential” value is given as −362 ± 8 mV.

Take `CN(C)CCOc1ccc2[nH]c(C(=O)N3CC(CCl)c4c3cc([N+](=O)[O-])c3cc(C#N)ccc43)cc2c1` (stereo not shown) [Compound 22, 1-(Chloromethyl)-3-{5-[2-(dimethylamino)ethoxy]indol-2-carbonyl}-5-nitro-1,2-dihydro-3H-benzo[e]indole-7-carbonitrile]: the IC50 in data set [1] (Homo sapiens, HT-29) turned out to be 0.7 µM; in data set [2] (Homo sapiens, SK-OV-3) it was 0.81 µM. Also, in data set [5] (hypoxic), the “k: rate” value was determined as 1.27 µM/h. For the same compound, the “E(1): one-electron reduction potential” value in data set [3] is listed as −385 ± 8 mV.

As a reminder, the melting point is the temperature of the solid-liquid transition. One may read the IC50 as the concentration at which inhibition is half-maximal. Higher therefore signals a need for much substance.

Source of the values: patent publication US7718688B2, “Nitrobenzindoles and their use in cancer therapy” (Auckland Uniservices Limited, priority 2004, dated 2010).
